Key:
[1] = biological target: Phosphatidylinositol 4,5-bisphosphate 3-kinase catalytic subunit alpha isoform (Homo sapiens, UniProt P42336); test: Inhibition of recombinant PI3Kalpha (unknown origin) using PIP2:3PS as substrate preincubated for 20 mins followed by ATP addition and measured after 1 hrs by ADP-Glo reagent based assay
[2] = biological target: T1, Phosphatidylinositol 4,5-bisphosphate 3-kinase catalytic subunit delta isoform (Homo sapiens, UniProt O00329); test: Inhibition of recombinant PI3Kdelta (unknown origin) using PIP2:3PS as substrate preincubated for 20 mins followed by ATP addition and measured after 1 hrs by ADP-Glo reagent based assay
T1 sequence (O00329 whole entry): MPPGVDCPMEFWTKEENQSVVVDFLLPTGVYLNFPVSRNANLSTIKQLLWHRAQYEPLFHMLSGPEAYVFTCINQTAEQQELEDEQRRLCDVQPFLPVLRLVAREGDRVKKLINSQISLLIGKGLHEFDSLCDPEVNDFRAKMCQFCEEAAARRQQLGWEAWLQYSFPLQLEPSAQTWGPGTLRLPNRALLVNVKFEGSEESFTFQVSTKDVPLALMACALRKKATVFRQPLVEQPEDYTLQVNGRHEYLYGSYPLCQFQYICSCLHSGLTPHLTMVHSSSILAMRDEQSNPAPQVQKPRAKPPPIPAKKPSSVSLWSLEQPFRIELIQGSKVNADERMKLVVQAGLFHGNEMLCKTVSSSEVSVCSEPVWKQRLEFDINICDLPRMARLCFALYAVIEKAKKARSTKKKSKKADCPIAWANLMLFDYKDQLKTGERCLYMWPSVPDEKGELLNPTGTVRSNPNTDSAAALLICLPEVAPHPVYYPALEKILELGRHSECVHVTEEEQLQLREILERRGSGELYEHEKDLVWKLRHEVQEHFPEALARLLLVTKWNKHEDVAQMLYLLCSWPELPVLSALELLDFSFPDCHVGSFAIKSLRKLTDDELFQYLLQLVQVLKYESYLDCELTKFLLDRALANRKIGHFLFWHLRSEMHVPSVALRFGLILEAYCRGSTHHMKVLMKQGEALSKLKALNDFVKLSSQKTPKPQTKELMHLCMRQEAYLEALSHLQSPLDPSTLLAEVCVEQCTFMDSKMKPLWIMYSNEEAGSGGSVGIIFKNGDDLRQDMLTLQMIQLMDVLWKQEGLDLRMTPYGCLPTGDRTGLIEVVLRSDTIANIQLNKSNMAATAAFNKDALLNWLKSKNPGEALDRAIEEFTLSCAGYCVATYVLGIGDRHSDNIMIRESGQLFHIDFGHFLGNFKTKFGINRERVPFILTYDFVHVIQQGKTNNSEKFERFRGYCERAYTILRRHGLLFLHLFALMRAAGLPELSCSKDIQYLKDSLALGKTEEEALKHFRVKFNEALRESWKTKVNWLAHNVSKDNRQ

[3] = Growth inhibition of PI3Kdelta-overexpressing human Pfeiffer cells incubated for 72 hrs by MTT assay; type: functional
[4] = Chemical reactivity of the compound with N-Boc-Lysine assessed as half-life at 1 uM by HPLC analysis; type: physicochemical; settings: incubation with N-Boc-Lysine
[5] = Growth inhibition of PI3Kdelta-overexpressing human SU-DHL-6 cells incubated for 72 hrs by MTT assay; type: functional

Chain of Phosphatidylinositol 4,5-bisphosphate 3-kinase catalytic subunit alpha isoform (P42336 whole entry, canonical isoform): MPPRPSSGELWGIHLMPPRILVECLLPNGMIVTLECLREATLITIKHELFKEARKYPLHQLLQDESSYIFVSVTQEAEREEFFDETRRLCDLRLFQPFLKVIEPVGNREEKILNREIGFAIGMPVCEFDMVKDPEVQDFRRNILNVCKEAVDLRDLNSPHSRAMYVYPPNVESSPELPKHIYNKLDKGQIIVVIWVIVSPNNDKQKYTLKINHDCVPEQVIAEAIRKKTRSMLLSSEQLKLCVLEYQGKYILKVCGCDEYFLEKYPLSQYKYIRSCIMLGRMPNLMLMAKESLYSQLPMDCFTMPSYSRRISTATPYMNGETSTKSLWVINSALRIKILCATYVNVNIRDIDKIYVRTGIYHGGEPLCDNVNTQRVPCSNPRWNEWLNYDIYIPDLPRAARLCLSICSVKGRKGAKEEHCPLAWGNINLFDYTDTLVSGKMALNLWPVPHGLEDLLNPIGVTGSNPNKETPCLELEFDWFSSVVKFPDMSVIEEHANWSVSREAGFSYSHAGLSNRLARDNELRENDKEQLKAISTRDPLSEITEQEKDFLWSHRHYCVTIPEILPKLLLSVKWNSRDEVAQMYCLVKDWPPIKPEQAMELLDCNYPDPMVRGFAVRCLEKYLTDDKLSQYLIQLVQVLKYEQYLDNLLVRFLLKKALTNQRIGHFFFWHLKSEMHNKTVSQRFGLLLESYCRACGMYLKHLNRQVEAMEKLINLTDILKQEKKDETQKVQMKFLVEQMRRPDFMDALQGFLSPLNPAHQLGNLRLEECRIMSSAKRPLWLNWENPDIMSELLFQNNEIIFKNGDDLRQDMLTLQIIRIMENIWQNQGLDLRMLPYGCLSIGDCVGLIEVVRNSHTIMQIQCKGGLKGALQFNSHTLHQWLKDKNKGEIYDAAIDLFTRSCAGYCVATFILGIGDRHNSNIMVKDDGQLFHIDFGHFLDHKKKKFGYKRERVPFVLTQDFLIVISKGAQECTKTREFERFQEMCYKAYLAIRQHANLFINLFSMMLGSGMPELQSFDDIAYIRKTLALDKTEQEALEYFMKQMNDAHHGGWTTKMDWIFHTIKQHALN

Structure (SMILES) | IC50 [1] [nM] | IC50 [2] [nM] | half-life at 1 µM [4] [min] | GI50 [3] [nM] | GI50 [5] [nM]
COc1ncc(-c2ccc3ncnc(N[C@H]4CCN(C(=O)C5CCOCC5)C4)c3c2)cc1C(=O)Oc1ccc(Cl)cc1Cl | 347 | 1.5 | 1.2 | 346 | 142
COc1ncc(-c2ccc3ncnc(N[C@H]4CCN(C(=O)C5CCOCC5)C4)c3c2)cc1CCl | – | 24.2 | 420 | 490 | 310
COc1ncc(-c2ccc3ncnc(N[C@H]4CCN(C(=O)C5CCOCC5)C4)c3n2)cc1C(=O)Oc1ccc(Cl)cc1Cl | > 1000 | 1.42 | 1.1 | 752 | 53
COc1ncc(-c2ccc3ncnc(N[C@H]4CCN(C(=O)C5CCOCC5)C4)c3n2)cc1C(=O)Oc1ccc([N+](=O)[O-])cc1 | 10.4 | 2.31 | < 1 | 788 | 20
COc1ncc(-c2ccc3ncnc(N[C@H]4CCN(C(=O)C5CCOCC5)C4)c3c2)cc1C(=O)Oc1ccc(Cl)cc1 | > 1000 | 0.79 | 12.7 | 276 | 16
COc1ccc(OC(=O)c2cc(-c3ccc4ncnc(N[C@H]5CCN(C(=O)C6CCOCC6)C5)c4c3)cnc2OC)cc1 | 56.5 | 2.02 | 387 | 225 | 6
COc1ncc(-c2ccc3ncnc(N[C@H]4CCN(C(=O)C5CCOCC5)C4)c3n2)cc1C(=O)Oc1ccc(Cl)cc1 | > 1000 | 2.57 | 10.1 | 776 | 157
COc1ncc(-c2ccc3ncnc(N[C@H]4CCN(C(=O)C5CCOCC5)C4)c3n2)cc1C=O | – | 93.5 | 2.3 | 310 | 350
O=Cc1cc(-c2ccc3ncnc(N[C@H]4CCN(C(=O)C5CCOCC5)C4)c3n2)ccc1O | – | 5.58 | < 1 | 5480 | 710
C=CC(=O)Nc1cc(-c2ccc3ncnc(N[C@H]4CCN(C(=O)C5CCOCC5)C4)c3n2)cnc1OC | – | 47.8 | > 1440 | 1190 | 650
C#Cc1ccc(-c2ccc3ncnc(N[C@H]4CCN(C(=O)C5CCOCC5)C4)c3c2)cc1C=O | – | 2.67 | 1.9 | 4180 | 850

Further molecules by falling IC50 [2], results first:

IC50 [1] [nM] | IC50 [2] [nM] | half-life at 1 µM [4] [min] | Structure (SMILES) | GI50 [3] [nM] | GI50 [5] [nM]
– | 48.8 | 2.1 | COc1ncc(-c2ccc3ncnc(N[C@H]4CCN(C(=O)C5CCOCC5)C4)c3c2)cc1C=O | 200 | 170
– | 10.4 | 430 | COc1ncc(-c2ccc3ncnc(N[C@H]4CCN(C(=O)C5CCOCC5)C4)c3n2)cc1CCl | 570 | 340
– | 8.59 | > 1440 | C=CC(=O)Nc1cc(-c2ccc3ncnc(N[C@H]4CCN(C(=O)C5CCOCC5)C4)c3c2)cnc1OC | 1520 | 710
– | 6.46 | < 1 | O=Cc1cc(-c2ccc3ncnc(N[C@H]4CCN(C(=O)C5CCOCC5)C4)c3c2)ccc1O | 7780 | 320
29.8 | 3.19 | 3.2 | COc1ncc(-c2ccc3ncnc(N[C@H]4CCN(C(=O)C5CCOCC5)C4)c3n2)cc1C(=O)Oc1ccc(F)cc1F | 420 | 31
– | 1.48 | 2.1 | C#Cc1ccc(-c2ccc3ncnc(N[C@H]4CCN(C(=O)C5CCOCC5)C4)c3n2)cc1C=O | 2320 | 430
254 | 0.7 | 2.8 | COc1ncc(-c2ccc3ncnc(N[C@H]4CCN(C(=O)C5CCOCC5)C4)c3n2)cc1C(=O)Oc1cccnc1 | 662 | 122
663 | 0.26 | 2.5 | COc1ncc(-c2ccc3ncnc(N[C@H]4CCN(C(=O)C5CCOCC5)C4)c3c2)cc1C(=O)Oc1cccnc1 | 199 | 19

— ChEMBL document CHEMBL6127139, “Lysine-Targeted Covalent Inhibitors of PI3Kδ Synthesis and Screening by In Situ Interaction Upgradation” (J Med Chem, 2024)
